Measurements from the Kinase Knowledgebase extract (Sharma et al. 2016).

molecular target: MAPK14 (UniProt Q16539)
Sequence (Q16539 whole entry, looked up): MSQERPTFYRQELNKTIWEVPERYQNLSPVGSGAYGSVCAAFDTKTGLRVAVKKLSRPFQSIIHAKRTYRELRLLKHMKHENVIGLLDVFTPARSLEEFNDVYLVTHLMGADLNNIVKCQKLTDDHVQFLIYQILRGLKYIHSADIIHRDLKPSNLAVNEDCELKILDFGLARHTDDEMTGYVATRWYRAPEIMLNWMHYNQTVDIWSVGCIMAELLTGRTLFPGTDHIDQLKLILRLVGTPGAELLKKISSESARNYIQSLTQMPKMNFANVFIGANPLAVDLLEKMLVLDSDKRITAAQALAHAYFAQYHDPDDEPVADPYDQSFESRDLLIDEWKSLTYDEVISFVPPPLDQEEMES

Compound | IC50 [µM]
C[C@@H](CO)n1cnc(-c2ccc(F)cc2)c1-c1ccnc(Oc2ccc(Cl)cc2)n1 | < 50
CC[C@H](CO)n1cnc(-c2ccc(F)cc2)c1-c1ccnc(Oc2ccc(C)cc2)n1 | < 50
C[C@@H](CO)n1cnc(-c2ccc(F)cc2)c1-c1ccnc(Oc2ccc(F)cc2)n1 | < 50
OC[C@H](c1ccccc1)n1cnc(-c2ccc(F)cc2)c1-c1ccnc(Oc2ccccc2)n1 | < 50
CC[C@H](CO)n1cnc(-c2ccc(F)cc2)c1-c1ccnc(Oc2ccccc2)n1 | < 50
Cc1ccc(Oc2nccc(-c3c(-c4ccc(F)cc4)ncn3[C@@H](C)CO)n2)cc1 | < 50
C[C@H](CO)n1cnc(-c2ccc(F)cc2)c1-c1ccnc(Oc2ccc(F)cc2)n1 | < 50
OCC(CO)n1cnc(-c2ccc(F)cc2)c1-c1ccnc(Oc2ccc(F)cc2)n1 | < 50
CC[C@@H](CO)n1cnc(-c2ccc(F)cc2)c1-c1ccnc(Oc2ccc(Cl)cc2)n1 | < 50
C[C@H](CCN1CCOCC1)n1cnc(-c2ccc(F)cc2)c1-c1ccnc(Oc2ccccc2)n1 | < 50
OC[C@@H](c1ccccc1)n1cnc(-c2ccc(F)cc2)c1-c1ccnc(Oc2ccccc2)n1 | < 50
CC[C@H](CO)n1cnc(-c2ccc(F)cc2)c1-c1ccnc(Oc2ccc(Cl)cc2)n1 | < 50
OCC(CO)n1cnc(-c2ccc(F)cc2)c1-c1ccnc(Oc2ccccc2)n1 | < 50
CC[C@@H](CO)n1cnc(-c2ccc(F)cc2)c1-c1ccnc(Oc2ccccc2)n1 | < 50
CC[C@@H](CO)n1cnc(-c2ccc(F)cc2)c1-c1ccnc(Oc2ccc(C)cc2)n1 | < 50
Cc1ccc(Oc2nccc(-c3c(-c4ccc(F)cc4)ncn3C(CO)CO)n2)cc1 | < 50
